The conditions of this data set: human, in vivo. The source says: According to the invention, the excretion rate (excretion) is a marker representing the degree of discharge into urine of the amount of target components that have been filtered through the glomeruli by way of the regulating function of the renal tubules (reabsorption and secretion), and it is expressed as a proportion or percentage, or in arbitrary units. The value can be calculated after excluding the effect of reabsorption or concentration of water by correction using a correction factor, and expressed as fractional excretion (FE). Since urine often has a variable concentration rate, the percentages of reabsorption and excretion of D-serine and/or D-asparagine in the kidneys of a subject may be corrected using a “correction factor” that corrects for the urine concentration rate. According to one embodiment of the invention, for example, the subject D-serine excretion rate and/or the subject D-asparagine excretion rate may be corrected by a correction factor derived from the blood and/or urine. In its most simple form, the excretion rate is expressed as a percentage of the amount of target components in urine divided by the glomerular filtration rate for the target components, and the glomerular filtration rate obtained by inulin clearance or the actually measured urinary volume, as well as the amounts of target components in blood and/or in urine, may also be used for the calculation. L-amino acid levels (preferably the levels of L-serine and/or L-asparagine) in urine may also be used as urinary volume correction factors for calculation of the D-amino acid excretion rate. Creatinine clearance, calculated by urine creatinine level or the blood creatinine level, may also be used as a correction factor, expressing the D-serine excretion rate by the following formula, for example. This may then be multiplied by 100 to obtain a percent (%).
The test protocol was approved by the ethics committee of the national research and development agency: National Institutes of Biomedical Innovation, Health and Nutrition, and written informed consent was obtained from all of the test subjects.
Sample preparation from human blood plasma and urine was carried out as follows: First a 20-fold volume of methanol was added to and completely mixed with the blood plasma. […]
The amino acid optical isomers were quantified using the following two-dimensional HPLC system. […] NBD-amino acids were detected by fluorescence detection at 530 nm using excitation light of 470 nm. The NBD-amino acid retention time was identified from standard amino acid optical isomers and quantified by a calibration curve.
The blood urine D-serine level and blood urine D-asparagine level and creatinine level were calculated by substitution into the following formulas.

Consider `NC(=O)C[C@@H](N)C(=O)O` [D-asparagine], for which the “excretion rate after administration of ARB” value worked out at 35.39% and the “excretion rate before administration of ARB” value is recorded as 45.71%.

Turning to `N[C@H](CO)C(=O)O` [D-serine], the “excretion rate after administration of ARB” value was found to be 25.73% and the “excretion rate before administration of ARB” value is 64.56%.

These data come from patent US20220170945A1, “METHOD FOR ASSISTING EVALUATION OF RENAL PATHOLOGICAL CONDITIONS, SYSTEM FOR EVALUATING RENAL PATHOLOGICAL CONDITIONS AND PROGRAM FOR EVALUATING RENAL PATHOLOGICAL CONDITIONS” (Kagami Inc., priority 2019, published 2022).
